“And” between values parts separate entries of the source, which are not always exact repeats. Equal entries are not always repeated.
Experiments:
PTPN1/PTP1B = target: T1, PTPN1/PTP1B (Homo sapiens, UniProt P18031); test: PTP1B inhibition, fluorescence time-course, 10-dose IC50 (Example 2); type: biochemical
T1 construct: The enzyme was the human truncated form (1-321), recombinantly produced in Escherichia coli; host or cells: Escherichia coli
T1 sequence (P18031 1-321): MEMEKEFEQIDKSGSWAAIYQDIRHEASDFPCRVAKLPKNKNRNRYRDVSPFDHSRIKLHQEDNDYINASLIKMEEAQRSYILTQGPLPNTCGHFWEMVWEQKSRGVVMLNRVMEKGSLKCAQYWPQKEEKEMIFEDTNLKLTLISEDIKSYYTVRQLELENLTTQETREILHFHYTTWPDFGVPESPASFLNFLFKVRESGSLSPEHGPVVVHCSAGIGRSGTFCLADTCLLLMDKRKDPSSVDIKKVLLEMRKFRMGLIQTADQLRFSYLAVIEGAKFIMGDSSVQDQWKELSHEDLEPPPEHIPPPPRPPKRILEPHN

stomach tissues = test: Stomach RNA-sequencing, ENT-02 (MSI-1436) treatment and congruence with ENT-03 (Example 10); type: in vivo, mice
Description: Samples of stomach tissues from the mice were analysed by RNA-sequencing on an Illumina platform.
To achieve these aims, data were subject to a quality control evaluation, differential expression and functional enrichment analyses, as well as a congruence analysis.
[…] At this threshold, differentially expressed genes were identified in all contrasts.
As mentioned previously, for statistical robustness, only those with an adjusted p-value <0.05 should be considered. […]
The amount of overlap is represented in FIGS. 28A-28D. For each comparison, the value in the plot represents the number of intersecting selected genes and the color represents the Jaccard index (the intersection over the union) for the two contrasts under consideration.
Scatter plots, upset plots, venn diagrams, hypergeometric tests and Spearman rank correlation tests were employed to assess the level of overlap as shown in FIGS. 15-27.

[1] = test system: stomach, jejunum and ileum; test: GI tract transcriptome (RNAseq) after oral ENT-03, young vs aged mice; type: in vivo, C57bl/6 male mice
Description: Young (20 week) and aged (80 week) C57bl/6 male mice were administered ENT-03 (40 mg/kg) or vehicle (water) by oral gavage daily for 2 weeks. Over this period of time clinical observations were unremarkable as were the gross and microscopic examinations of the GI tract. The transcriptomes of the stomach, jejunum and ileum were analyzed by RNAseq technology. Comparative analyses of the transcripts from untreated animals identified numerous transcripts that differed in abundance between the corresponding tissues from old and young individuals. […] Thus, within these three distinct regions of the mouse GI tract, ageing is associated with changes in the transcriptome.
Statistical analysis of RNA-sequencing data was performed using R programming language. Transcripts with less than one read count per million reads in all samples of each tissue were removed. The raw count data for the samples were then normalised using trimmed mean of M-values normalisation and transformed with voom (Law et al., 2014), resulting in log 2-transformed counts per million with associated precision weights. […] Statistical comparisons were performed using linear modelling, as implemented in the Bioconductor package limma (Ritchie et al., 2015). Significance values (p-values) were adjusted for multiple testing using Benjamini-Hochberg procedure (Benjamini et al., 1995). For each comparison (e.g. group A versus group B), a positive log 2-transformed fold change indicates up-regulation in group A relative to group B.
To investigate the overlap between contrasts, the number of overlapping differentially expressed genes (defined using adjusted p-value <0.05) between all pairwise combinations of the comparisons performed were counted. For each comparison, the Jaccard index, defined as the intersection over the union, measures the similarity between the two contrasts under consideration. The p-value was calculated using a hypergeometric test taking into account the universe size under the assumption that the contrasts and genes are independent.

[2] = Mouse weight after deuterated ENT-03 i.p. (FIG. 12); type: in vivo; conditions: i.p. to mice
From the text: The presence of the deuterium on the side chain likely slows the action of the 2-methylacyl-coenzyme A racemase on C-25, the subsequent action of the dehydrogenase that produces the 24,25-trans-unsaturated derivative by removing the deuterium atoms at C24 and C25, and the subsequent hydration and oxidation at the C24 bond catalyzed by the D-bifunctional protein. Instead, the metabolism of ENT-03D3 will begin with the oxidation at C24 by CYP46A1, yielding the following compound: […]

## CC(C)[C@@H](CC[C@@H](C)[C@H]1CC[C@H]2[C@@H]3[C@H](O)C[C@H]4C[C@@H](NCCCNCCCCNCCCN)CC[C@]4(C)[C@H]3CC[C@]12C)OS(=O)(=O)O (single isomer, unassigned) [ENT-02 (MSI-1436), trodusquemine]
PTPN1/PTP1B; Conc 1.00E−04 M
  Slope (signal/min): −68 signal/min
PTPN1/PTP1B; Conc 1.11E−05 M
  Slope (signal/min): 292 signal/min
PTPN1/PTP1B; Conc 1.23E−06 M
  Slope (signal/min): 37260 signal/min
PTPN1/PTP1B; Conc 1.37E−07 M
  Slope (signal/min): 40137 signal/min
PTPN1/PTP1B; Conc 1.52E−08 M
  Slope (signal/min): 44021 signal/min
PTPN1/PTP1B; Conc 3.33E−05 M
  Slope (signal/min): −440 signal/min
PTPN1/PTP1B; Conc 3.70E−06 M
  Slope (signal/min): 16431 signal/min
PTPN1/PTP1B; Conc 4.12E−07 M
  Slope (signal/min): 39959 signal/min
PTPN1/PTP1B; Conc 4.57E−08 M
  Slope (signal/min): 42717 signal/min
PTPN1/PTP1B; Conc 5.08E−09 M
  Slope (signal/min): 43513 signal/min
PTPN1/PTP1B; Table 5A
  HILLSLOPE: −2.19
Stomach tissues; hypergeometric P<0.0001
  overlap of genes downregulated in aged mice with genes up-regulated by treatment in old mice: overlapped significantly
Stomach tissues; stomach, congruence analysis
  overlap of genes down-regulated in ageing and up-regulated in treatment with those of ENT-03: did not overlap with those affected by ENT-03

## CC(CCC[C@@H](C)[C@H]1CCC2C3C(CC[C@@]21C)[C@@]1(C)CC[C@H](NCCCNCCCCNCCCN)C[C@@H]1C[C@H]3O)C(=O)O (single isomer, unassigned) [ENT-03]
[1]; 40 mg/kg oral gavage daily for 2 weeks, young and aged mice
  clinical observations, gross and microscopic examinations of the GI tract: unremarkable
[1]; ileum, aged mice
  genes differentially expressed on treatment: 1162 genes
[1]; ileum, young mice
  genes differentially expressed on treatment: 80 genes
[1]; jejunum and ileum, both young and aged mice
  genes whose expression changed significantly in response to exposure: no more than 2 genes
[1]; jejunum, aged mice
  genes differentially expressed on treatment: 382 genes
[1]; jejunum, young mice
  genes differentially expressed on treatment: 42 genes
[1]; stomach
  genes down-regulated in ageing that are up-regulated by treatment in old mice: 37 genes and 36 genes
[1]; stomach, aged mice
  genes differentially expressed on treatment (p(adj)<0.05): 63 genes
[1]; stomach, young mice
  ageing genes further down regulated in the ageing direction by treatment: 12 genes
[1]; stomach, young mice (20 weeks)
  genes differentially expressed on treatment (p(adj)<0.05): 13 genes
[2]
  effect on weight: loss of weight

— patent publication US20250228873A1, “C25 R AND S ISOMERS OF AMINOSTEROLS AND METHODS OF MAKING AND USING THE SAME” (Enterin, Inc., priority 2022, published 2025)
